Results as given in patent US5468760A, “Aralkyl-N-hydroxyureas as inhibitors of 5-lipoxygenase and oxidation of low density lipoprotein” (American Home Products Corporation, priority 1993, dated 1995).

How the values were obtained:
[1] = target: T1, 5-Lipoxygenase (Homo sapiens, UniProt P09917); experiment: Inhibition of 5-Lipoxygenase in Human Whole Blood (LTB4, calcium ionophore A23187); format: cell-based; conditions: 1 μM
T1 construct: endogenous in cells; host or cells: human whole blood from male donors (results expressed per 10^6 neutrophils)
T1 sequence (P09917 1-674): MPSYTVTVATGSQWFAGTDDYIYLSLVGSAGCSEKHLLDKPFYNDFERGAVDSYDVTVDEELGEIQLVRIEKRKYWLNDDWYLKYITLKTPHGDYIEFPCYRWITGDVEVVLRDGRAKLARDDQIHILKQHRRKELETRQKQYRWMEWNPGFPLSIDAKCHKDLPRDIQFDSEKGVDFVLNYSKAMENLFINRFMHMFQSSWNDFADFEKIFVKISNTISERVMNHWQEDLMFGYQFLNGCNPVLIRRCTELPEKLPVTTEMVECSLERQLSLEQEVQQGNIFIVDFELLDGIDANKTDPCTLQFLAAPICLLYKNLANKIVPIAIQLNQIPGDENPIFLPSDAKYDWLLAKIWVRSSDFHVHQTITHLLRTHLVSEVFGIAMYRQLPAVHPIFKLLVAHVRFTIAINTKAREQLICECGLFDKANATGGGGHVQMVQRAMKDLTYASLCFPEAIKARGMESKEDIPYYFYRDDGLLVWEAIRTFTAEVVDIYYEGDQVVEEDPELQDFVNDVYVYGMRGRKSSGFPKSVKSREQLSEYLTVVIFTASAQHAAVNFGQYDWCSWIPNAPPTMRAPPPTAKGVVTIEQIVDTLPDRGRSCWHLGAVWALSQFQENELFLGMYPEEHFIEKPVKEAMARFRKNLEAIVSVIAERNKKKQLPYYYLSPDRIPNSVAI
Protocol: 1. Inhibition of 5-Lipoxygenase in Human Whole Blood
Blood is obtained in 50-100 ml quantities from male donors. White blood cell counts and differentials are made. Two ml of blood are placed in a 15 ml polypropylene test tube. Test compounds are solubilized in dimethylsulfoxide and diluted in 1:10 in 10% bovine serum albumin in phosphate buffered saline, pH 7.4 resulting in a final dimethylsulfoxide concentration of 0.1% in the blood. Then, solutions of test compounds are added to the blood in a shaking water bath at 37° C. for 10 minutes prior to the addition of 30 μM calcium ionophore (A23 187, Sigma). After ionophore administration, whole blood samples are mixed and incubated for 20 minutes at 37° C. in a shaking water bath. Incubation is terminated by placing samples in an ice bath and immediately adding ethylene glycol-bis-(β-aminoethyl ether)-N,N,N',N'-tetraaceticacid (10 mM). Samples are mixed and centrifuged at 1200 x g for 15 minutes at 4° C. Preparation of samples for evaluation by RIA or ELISA is carried out by the following protocol. Plasma is removed from sample tubes, placed in 15 ml polypropylene test tubes containing 8 ml methanol, and then vortexed to precipitate protein. Samples are stored at -70° C. overnight. The next day, samples are centrifuged at 200 x g for 15 minutes at 4° C. to pellet the precipitate. Samples are dried in a Savant SpeedVac Concentrator, Model SVC 200H, reconstituted to original volume with ice cold RIA or ELISA buffer, and stored at -70° C. until assayed. The assay for eicosanoids (LTB4, TxB2, and PGE2) is performed as described by the manufacturer of the [^3 H]-RIA kit or ELISA kit (LTB4 -Amersham, TxB2 and PGE2 -Caymen Chemical).
The total eicosanoid level in 2 ml of blood is calculated and reported as ng/10^6 neutrophils. Significance is determined by a one-way analysis of variance with least significant difference (LSD) comparisons to control (p≤0.05) and IC50 's (μM) are determined by regression analysis (Finney, 1978). Drug effects are expressed as percent change from control values.

[2] = test system: low density lipoprotein (LDL); experiment: Inhibition of Copper Ion Mediated Oxidation of Low Density Lipoprotein; format: biochemical; conditions: Cu^+2 mediated oxidation of rabbit or monkey LDL; 37° C., 90 minutes; absorbance at 532 nm
Protocol: 5. Inhibition of Copper Ion Mediated Oxidation of Low Density Lipoprotein
In this in vitro assay, the inhibition of Cu^+2 mediated oxidation of rabbit or monkey LDL by an invention compound is determined spectrophotometricallly. Oxidation of LDL results in the formation of LDL-diene which absorbs light at 532 nm. Inhibition of oxidation of LDL leads to a decrease in absorbance at 532 nm.
Rabbit or monkey LDL is prepared according to the procedures of Havel, Eder and Gragdon, "The Distribution and Chemical Composition of Ultracentrifugally Separated Lipoproteins in Human Serum,: J. Clin. Invest. 34, 1345-1353 (1955) and Parhtasarathy, Wieland and Steriberg, "A Role for Endothelial Cell Lipoxygenase in the Oxidative Modification of Low Density Lipoprotein," Proc. Natl. Acad. Sci. USA 86, 1046-1050 (1989). Test compound solutions are prepared by dissolving the invention compounds in ethanol at concentrations up to 248 μM. The medium used is Dulbecco's phosphate buffered saline containing 0.5 mg/ml bovine serum albumin. For standards, 0 to 10 μl of an aqueous solution of 1,1,3,3-tetraethoxypropane (1 μmol/ml H2 O) in 4.1 ml of medium is used.
Test compound solution (100 μl) is added to 4 ml of medium in incubation tubes. To each tube is added 10 μl of LDL solution and 25 μl of aqueous copper sulfate solution (1.32 mg/ml H2 O). The tubes are incubated at 37° C. for 90 minutes and the oxidation reaction quenched by addition of 1 ml of thiobarbituric acid solution (0.67% in 50% acetic acid). The tubes are heated at 90° C. for 1 hour, then chilled in an ice bath and the chromophore extracted into 2 ml of n-butanol. Absorbence is read at 532 nm and the results are reported as nmols of malondialdehyde equivalents.
Significant differences (p<0.05) are determined by the Dunnett T-test or by the Student-Newman-Keuls Test for significant differences between means. The assay is conducted using several concentrations [I] of the inhibitor test compounds. […] The IC50 is determined by non-linear regression, plotting log [I] vs. % inhibition. […]

Row | inhibition at 1 µM [1] | IC50 [2] | SMILES
1 | 52% | 640 nM | Cc1oc(-c2ccccc2)nc1COc1cccc(CN(O)C(N)=O)c1 [Example 1, 1-Hydroxy-1-[3-(5-methyl-2-phenyl-oxazol-4-ylmethoxy)-benzyl]-urea]
2 | 66% | – | NC(=O)N(O)Cc1cccc(OCc2csc(-c3ccccc3)n2)c1 [Example 5, 1-Hydroxy-1-[3-(2-phenyl-thiazol-4-ylmethoxy)-benzyl]-urea]
3 | 68% | 590 nM | NC(=O)N(O)Cc1cccc(OCc2csc(-c3ccc(Cl)cc3)n2)c1 [Example 6, 1-Hydroxy-1-[3-[2-(4-chloro-phenyl)-thiazol-4-ylmethoxy]-benzyl]-urea]
4 | 74% | 570 nM | Cc1oc(-c2ccc(F)cc2)nc1COc1cccc(CN(O)C(N)=O)c1 [Example 9, 1-[3-[2-(4-fluorophenyl)-5-methyl-oxazol-4-ylmethoxy]-benzyl]-1-hydroxy-urea]
5 | 70% | – | Cc1oc(-c2ccccc2)nc1COc1cc(F)cc(CN(O)C(N)=O)c1 [Example 13, 1-[3-Fluoro-5-(5-methyl-2-phenyl-oxazol-4-ylmethoxy)-benzyl]-1-hydroxy-urea]
